We go through two molecules from publication PMC8699718, “A structurally conserved site in AUP1 binds the E2 enzyme UBE2G2 and is essential for ER-associated degradation” (PLoS Biology, 2021).

Ends that are not written are not given here.

This data set concerns NHK (Null Hong Kong variant of alpha1-antitrypsin). As to the kind of experiment: CHX chase: NHK degradation in HT1080 AUP1 KO cells. The class given is cell-based, human. Here is the method:
Fig 1 The G2BR of AUP1 is required for ERAD of NHK. (A) HT1080 or cells in which HRD1 was knocked out by CRISPR/Cas-9 (HRD1 KO) were transfected with plasmid encoding carboxyl-terminally HA-tagged NHK. Cells were treated with CHX for the indicated times to inhibit protein synthesis and NHK-HA degradation monitored by western blot. GFP and HSP60 serve as transfection efficiency and gel loading controls, respectively. (B) HT1080 or cells in which either AUP1 or gp78 was knocked out (AUP1 KO or gp78 KO) were transfected with NHK-HA and their degradation assessed. (C) AUP1 KO cells were transfected with NHK-HA and empty vector or plasmid encoding carboxyl-terminally FLAG-tagged AUP1 and NHK degradation assessed. (D) Indicated cells were transfected with plasmid encoding carboxyl-terminally MYC-tagged INSIG-1 and assessed for INSIG-1 degradation. (E) Schematic representation of AUP1 in the ER membrane and deletion mutants used in subsequent experiments. Amino acid residues are numbered spanning each domain. (F) AUP1 KO cells were transfected with NHK-HA and plasmids encoding the indicated FLAG-tagged AUP1 WT or deletion mutants and assessed for NHK degradation. (G) HEK293 (Parental) or HEK293 AUP1 KO cells were assessed for degradation of NHK-HA. (H) HEK293 AUP1 KO cells were assessed for NHK-HA degradation as in (F). Markers represent apparent molecular weight in kDa. The data underlying this figure can be found in S1 Data. aa, amino acid; AUP1, ancient ubiquitous protein 1; CHX, cycloheximide; ER, endoplasmic reticulum; ERAD, endoplasmic reticulum–associated degradation; G2BR, UBE2G2 Binding Region; KO, knockout; NHK, Null Hong Kong; WT, wild type.
Fig 6 Disruption of UBE2G2:G2BR^AUP1 interaction abrogates AUP1 function in cells. (A) GST or indicated GST-AUP1 fusions (aa 292 to 410, expression shown in Coomassie-stained gel) were immobilized on glutathione beads and binding to ^35S-UBE2G2 was assessed as in Fig 3A. Mutations include 2A (R382A/Q383A), 2E (R382E/Q383E), and 5E (R382E/Q383E/K390E/R398E/R400E). (B) AUP1 KO cells were transfected with NHK-HA and forms of full-length AUP1-FLAG with the indicated point mutations from (A) and NHK degradation assessed by CHX chase. (C) Binding assay performed as in (A) with AUP1 mutants predicted to disrupt hydrophobic interactions with UBE2G2. (D) Cellular assay performed as in (B) with AUP1-FLAG mutants that disrupt interactions with UBE2G2 in vitro in (C). The data underlying this figure can be found in S1 Data. aa, amino acid; AUP1, ancient ubiquitous protein 1; CHX, cycloheximide; G2BR, UBE2G2 Binding Region; KO, knockout; WT, wild type.
Fig 8 Recruitment of UBE2G2 to the ER membrane and activation by G2BR^AUP1 is required for ERAD. (A) HT1080 or AUP1 KO cells were transfected with NHK-HA and either empty vector or MYC-UBE2G2 and NHK turnover assessed by CHX chase. (B) AUP1 KO cells were transfected with NHK-HA and GFP fusions of either a scrambled G2BR sequence (SCR) or G2BR^AUP1 and NHK turnover and levels of endogenous UBE2G2 assessed. Luciferase and β-actin served as transfection efficiency and gel loading controls, respectively. (C) AUP1 KO cells were transfected with NHK-HA, MYC-UBE2G2, and either GFP-SCR or GFP-G2BR^AUP1 and NHK turnover assessed. (D) Membrane fractionation was performed on HT1080 or AUP1 KO cells transfected with either empty vector or AUP1-FLAG and localization of UBE2G2 assessed by western blotting. Localization of β-actin (cytosol) and Calnexin (ER membrane) were used as controls for cytosolic (C) and membrane (M) fractions, respectively. (E) Membrane fractionation of AUP1 KO cells transfected with either MYC-UBE2G2 or TM-UBE2G2. (F) HT1080 cells were transfected with TM-UBE2G2 and its localization assessed by confocal microscopy. Images shown are from an optical section after deconvolution. HA-tagged UBE2J2, an ER-localized E2, serves as an ER marker. […]

Regarding “GFP-G2BR^AUP1: GFP fusion of AUP1 aa 378 to 404 (SSWARQESLQERKQALYEYARRRFTER; also: GFP fusion; UniProt Q9Y679 378-404, looked up, fragment)”, the “NHK degradation, soluble G2BR alone” value (GFP fusion overexpressed without UBE2G2, HT1080 AUP1 KO) is “insufficient to reconstitute NHK degradation”. Further, under “GFP-G2BR^AUP1 co-expressed with MYC-UBE2G2, HT1080 AUP1 KO”, the “NHK degradation, soluble G2BR with UBE2G2” value was “did not restore NHK degradation”. For the same molecule, the “NHK degradation, soluble G2BR with TM-UBE2G2” value (GFP-G2BR^AUP1 co-expressed with TM-UBE2G2, HT1080 AUP1 KO) is “fully restored”.

B1: UBE2G2: ERAD ubiquitin-conjugating enzyme (E2); purified in vitro, N-terminally MYC-tagged in cells (protein)
chain: MAGTALKRLMAEYKQLTLNPPEGIVAGPMNEENFFEWEALIMGPEDTCFEFGVFPAILSFPLDYPLSPPKMRFTCEMFHPNIYPDGRVCISILHAPGDDPMGYESSAERWSPVQSVEKILLSVVSMLAEPNDESGANVDASKMWRDDREQFYKIAKQIVQKSLGL
Take B1: where the note is “UBE2G2 form transfected without G2BR, HT1080 AUP1 KO”, the “NHK degradation, UBE2G2 overexpression” value is “did not restore NHK degradation”.
